Experimental data as given in US4703044A, “Imidazoquinolines containing other heterocyclic groups, useful as anti-ulcer or anti-secretory agents” (John Wyeth & Brother Limited, priority 1983, dated 1987).
Like-named read-outs stand apart in the source and are kept apart here.

Legend:
H^+ /K^+ ATPase = molecular target: T1, H^+ /K^+ ATPase (Oryctolagus cuniculus, UniProt P27112); assay: inhibition of 14C-aminopyrine accumulation in rabbit isolated gastric glands stimulated by DBcAMP or high K+ (H+/K+ ATPase inhibition); assay type: cell-based; settings: 10^-4 M, 14C-aminopyrine uptake
T1 construct: Rabbit gastric glands are isolated from gastric mucosa from the corpus region of the stomach; from tissue; host or cells: isolated gastric glands from rabbit gastric mucosa, corpus region of the stomach
T1 sequence (P27112 whole entry): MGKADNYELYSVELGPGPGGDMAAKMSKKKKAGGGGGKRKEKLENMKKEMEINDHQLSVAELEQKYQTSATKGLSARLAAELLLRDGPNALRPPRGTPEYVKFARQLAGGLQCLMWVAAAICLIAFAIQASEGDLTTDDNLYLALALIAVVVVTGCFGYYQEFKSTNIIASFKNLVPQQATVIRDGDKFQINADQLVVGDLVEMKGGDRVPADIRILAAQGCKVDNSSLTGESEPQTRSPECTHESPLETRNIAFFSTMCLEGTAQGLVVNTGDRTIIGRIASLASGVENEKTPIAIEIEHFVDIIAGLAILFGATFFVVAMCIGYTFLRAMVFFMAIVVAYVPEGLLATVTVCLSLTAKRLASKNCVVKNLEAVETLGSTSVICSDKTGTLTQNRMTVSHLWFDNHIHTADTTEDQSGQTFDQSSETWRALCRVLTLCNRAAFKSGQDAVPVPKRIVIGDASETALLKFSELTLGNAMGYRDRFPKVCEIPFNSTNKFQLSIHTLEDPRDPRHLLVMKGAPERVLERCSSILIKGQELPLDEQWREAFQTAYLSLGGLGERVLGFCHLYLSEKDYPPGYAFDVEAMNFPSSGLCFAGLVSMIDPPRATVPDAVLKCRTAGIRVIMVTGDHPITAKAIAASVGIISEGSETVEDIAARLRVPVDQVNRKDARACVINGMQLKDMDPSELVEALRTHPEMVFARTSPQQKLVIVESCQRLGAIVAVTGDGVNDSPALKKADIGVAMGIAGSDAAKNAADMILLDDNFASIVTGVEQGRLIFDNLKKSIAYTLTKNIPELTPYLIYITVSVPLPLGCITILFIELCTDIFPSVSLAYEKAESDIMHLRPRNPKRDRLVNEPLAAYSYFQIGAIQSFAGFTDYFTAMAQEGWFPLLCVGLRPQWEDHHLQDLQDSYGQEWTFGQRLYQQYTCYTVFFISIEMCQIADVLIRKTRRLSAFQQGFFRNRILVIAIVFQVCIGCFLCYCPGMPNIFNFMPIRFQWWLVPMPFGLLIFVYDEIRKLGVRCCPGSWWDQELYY
T1 sequence (P18597 whole entry partner): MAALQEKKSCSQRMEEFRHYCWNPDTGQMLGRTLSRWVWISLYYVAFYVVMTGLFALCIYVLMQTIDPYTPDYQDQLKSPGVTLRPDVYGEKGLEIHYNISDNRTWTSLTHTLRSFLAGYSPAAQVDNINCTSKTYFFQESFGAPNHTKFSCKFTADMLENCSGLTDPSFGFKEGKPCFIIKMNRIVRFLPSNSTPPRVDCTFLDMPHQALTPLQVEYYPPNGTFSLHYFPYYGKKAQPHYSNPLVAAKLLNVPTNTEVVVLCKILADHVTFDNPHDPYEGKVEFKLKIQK
Description: Compounds of formula I were also tested for anti-secretory activity by their ability to inhibit the highly specific proton transporting enzyme H^+ /K^+ ATPase.
Potential H^+ /K^+ ATPase inhibitors are evaluated by a technique involving the measurement of aminopyrine accumulation in rabbit isolated gastric glands. Aminopyrine, which is a weak base, accumulates in acid-secreting cells; therefore, uptake of aminopyrine is increased by secretagogues and an inhibitor of acid secretion will reduce the response to one or more secretagogues depending upon its site of action. Compounds which reduce the response to dibutyryl cyclic adenosine monophosphate (DBcAMP) stimulation are assumed to have an intracellular site of action, and those which reduce the response to both DBcAMP and high potassium ion concentration (K^+) are thought to have an intracellular site of action at the secretory surface of the parietal cell, involving the highly specific proton - transporting enzyme, H^+ /K^+ ATPase. The following test procedure is used:
Rabbit gastric glands are isolated from gastric mucosa from the corpus region of the stomach by a method based on one described by Berglindh T., Obrink K. J., Acta Physiol. Scand. 96, 150-159 (1976). Measurement of aminopyrine uptake is carried out using a modification of the method described by Berglindh T., Hellander H. F., Obrink K. J. (ibid, 97, 401-414, 1976).
Compounds are tested at a concentration of 10^-4 M, initially, and in some cases at lower concentrations, for their ability to inhibit ^14 C-aminopyrine uptake in gastric glands, stimulated by DBcAMP and high K^+ respectively. Results are expressed as the % inhibition of the maximum response to the secretagogue induced by the test compound. An inhibitor of H^+ /K^+ ATPase would be expected to reduce the response to both secretagogues.

[1] = stress-induced erosion test (Senay and Levine), anti-ulcer activity; assay type: in vivo
Description: Anti-ulcer activity was determined by the stress-induced erosion test of Senay and Levine, Proc. Soc. Exp. Biol. Med., 124, 1221-3 (1967).

[2] = anti-secretory test of Shay et al (as exemplified by Beattie et al); assay type: in vivo; settings: read-out: Anti-Secretory (Shay et al) % Change in volume
[3] = DBcAMP stimulation, read-out: % Inhibition to Stimulation by DBcAMP at 10^-4
[4] = high K+ stimulation, read-out: % Inhibition to Stimulation by K^+ at 10^-4

SMILES | inhibition at 100 µM (H^+ /K^+ ATPase; [3]) [%] | inhibition at 100 µM (H^+ /K^+ ATPase; [4]) [%] | inhibition in vivo at 100 mg/kg [1] [%] | change in vivo at 30 mg/kg [2] [%]
COc1cc2c3c(c1)nc(SCc1cccc(-c4ccccc4)n1)n3CCC2 [Example 10B, 5,6-Dihydro-8-methoxy-2-[(6-phenylpyridin-2-yl)-methylthio]-4H-imidazo[4,5,1-ij]quinoline] | 98 | 136 | – | –
c1ccc2nc(CSc3nc4cccc5c4n3CCC5)ccc2c1 [Example 11, 5,6-dihydro-2-(quinolin-2-ylmethylthio)-4H-imidazo[4,5,1-ij]quinoline] | 62 | 147 | – | 22
c1cc2c3c(c1)nc(SCc1ccncc1)n3CCC2 [Example 21, 5,6-Dihydro-2-(4-pyridylmethylthio)-4H-imidazo[4,5,1-ij]-quinoline] | 66 | – | – | –
Cc1cnc(CSc2nc3cccc4c3n2CCC4)c(C)c1 [Example 7, 5,6-Dihydro-2-(2-(3,5-dimethylpyridyl)methylthio)-[4H]-imidazo-[4,5,1-ij]quinoline] | 70 | 74 | – | –
c1ccc(-c2cccc(CSc3nc4cccc5c4n3CCC5)n2)cc1 [Example 6, 5,6-Dihydro-2-(2-(6-phenylpyridyl)methylthio)-[4H]-imidazo-[4,5,1-ij]quinoline] | 36 | 182 | 58 | –
[O-][S+](Cc1ccccn1)c1nc2cccc3c2n1CCC3 (stereo not drawn) [Example 2, 2-(2-Pyridylmethylsulphinyl)-5,6-dihydro-4H-imidazo-[4,5,1-ij]quinoline] | 97 | 65 | 60 | –
Cc1cccnc1C[S+]([O-])c1nc2cccc3c2n1CCC3 (stereo not drawn) [Example 5, 5,6-Dihydro-2-(2-(3-methylpyridyl)methylsulphinyl)-[4H]-imidazo-[4,5,1-ij]quinoline] | 66 | – | – | –

Second part, led by results:

inhibition at 100 µM (H^+ /K^+ ATPase; [3]) [%] | inhibition at 100 µM (H^+ /K^+ ATPase; [4]) [%] | SMILES | inhibition in vivo at 100 mg/kg [1] [%] | change in vivo at 30 mg/kg [2] [%]
34 | – | c1ccc(CSc2nc3cccc4c3n2CCC4)nc1 [Example 1, 5,6-Dihydro-2-(2-pyridylmethylthio)-4H-imidazo-[4,5,1-ij]-quinoline] | 69 | –
68 | – | COc1cc2c3c(c1)nc(SCc1ccncc1)n3CCC2 [Example 20, 5,6-Dihydro-8-methoxy-2-(4-pyridylmethylthio)-4H-imidazo[4,5,1-ij]quinoline] | – | –
48 | – | Cc1cnc(C[S+]([O-])c2nc3cccc4c3n2CCC4)c(C)c1 (stereo not drawn) [Example 8] | – | –
– | -109 | Cc1cccnc1CSc1nc2cccc3c2n1CCC3 [Example 3, 5,6-Dihydro-2-(2-(3-methylpyridyl)methylthio)-4-[H]-imidazo-[4,5,1-ij]quinoline] | 68 | –
70 | 124 | COc1cc2c3c(c1)nc(SCc1ccc4ccccc4n1)n3CCC2 [Example 19, 5,6-Dihydro-8-methoxy-2-(quinolin-2-ylmethylthio)-4H-imidazo-[4,5,1-ij]quinoline] | – | –
16.7 | 35.5 | C1=Cc2cccc3nc(SCc4ccccn4)n(c23)C1 [Example 4, 2-(2-Pyridylmethylthio)-4[H]-imidazo-[4,5,1-ij]quinoline] | – | –
75 | 122 | c1ccc(-c2nc(CSc3nc4cccc5c4n3CCC5)cs2)cc1 [Example 9, 5,6-Dihydro-2-[(2-phenylthiazol-4-yl)methylthio]-4H-imidazo[4,5,1-ij]quinoline] | – | –
